Results reported in patent US8785631B2, “Oxazolone derivative compounds having a 3-oxa-1-azaspiro[4.5] core” (Seikagaku Corporation, priority 2006, dated 2014).
*1 amine or outer side, *2 acyl side, *3 side chain or, on linkers, in order; H or OH if unused. Where a SMILES comes first, the peptide text is derived from it. [ ]: non-standard residue; d: D form. The star is where a group is joined. Ac6c = NC1(C(=O)O)CCCCC1; Morpholide = C1CN(*)CCO1; Nle = CCCC[C@H](N)C(=O)O; Cbz = O=C(OCc1ccccc1)*; CO = O=C([*:1])[*:2]

Key:
Human cathepsin L = biological target: T1, Human cathepsin L (Homo sapiens, UniProt P07711); experiment: Measurement of cathepsin L inhibitory activity; type: biochemical; settings: selectivity ratio L/K
T1 construct: purchased Calbiochem Corp
T1 sequence (P07711 114-333): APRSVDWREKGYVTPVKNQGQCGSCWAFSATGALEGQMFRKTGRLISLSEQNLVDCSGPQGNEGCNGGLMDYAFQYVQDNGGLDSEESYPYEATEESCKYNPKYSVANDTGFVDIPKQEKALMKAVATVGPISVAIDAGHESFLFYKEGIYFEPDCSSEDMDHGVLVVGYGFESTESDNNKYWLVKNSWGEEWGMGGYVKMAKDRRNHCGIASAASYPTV
Protocol: (§1) Human cathepsin L (Calbiochem Corp.) was used for measurement. Activity was measured based on decomposition of the fluorescent substrate Z-Phe-Arg-MCA (Peptide Institute, Inc.) in compliance with the method of Barrett, et al.^3). Namely, the decomposition of […] Z-Phe-Arg-MCA by cathepsin L was measured in 100 mM sodium acetate, 5 mM EDTA, 4 mM urea, 8 mM cysteine and 0.005% Brij35 at pH 5.5. The reaction was carried out for 30 minutes at 30° C., and stopped by the addition of 2×10^−5 M Calpeptin. After stopping the reaction, fluorescent intensity was measured at an excitation wavelength of 355 nm and measurement wavelength of 460 nm. Inhibition of cathepsin L by the compounds was examined using the reaction system described above.

Human cathepsin B = biological target: T2, Human cathepsin B (Homo sapiens, UniProt P07858); experiment: Measurement of cathepsin B inhibitory activity; type: biochemical; settings: selectivity ratio B/K
T2 construct: purchased Calbiochem Corp
Protocol: as §1, with “B” for “L”, “Z-Arg-Arg-MCA” for “Z-Phe-Arg-MCA”, “potassium phosphate, 1” for “acetate, 5”, “EDTA,” for “EDTA, 4 mM urea,”, “6.0.” for “5.5.”

SMILES	L/K (ratio of IC50 cathepsin L to cathepsin K) (Human cathepsin L)	B/K (ratio of IC50 cathepsin B to cathepsin K) (Human cathepsin B)
CC(C)[C@@H](C=O)NC(=O)C1(NC(=O)OCc2ccccc2)CCCCC1 [Reference Example 144, N-[[1-[[(Phenylmethoxy)carbonyl]amino]cyclohexyl]carbonyl]-L-valinal] (Cbz-[Ac6c]-Val-aldehyde)	400	230
CCCC[C@@H](C=O)NC(=O)C1(NC(=O)OCc2ccccc2)CCCCC1 [Reference Example 145, N-[[1-[[(Phenylmethoxy)carbonyl]amino]cyclohexyl]carbonyl]-L-norleucinal] (Cbz-[Ac6c]-[Nle]-aldehyde)	50	35
CC(C)[C@@H](C=O)NC(=O)C1(NC(=O)c2ccco2)CCCCC1 [Reference Example 146, N-[[1-[(2-Furanylcarbonyl)amino]cyclohexyl]carbonyl]-L-valinal]	370	87
CCCC[C@@H](C=O)NC(=O)C1(NC(=O)N2CCOCC2)CCCCC1 [Reference Example 147, N-[[1-[(4-Morpholinylcarbonyl)amino]cyclohexyl]carbonyl]-L-norleucinal] ({Morpholide-CO}-[Ac6c]-[Nle]-aldehyde)	21	12
CC(C)C[C@H](NC(=O)OCc1ccccc1)C(=O)N[C@H](C=O)C(C)C [Reference Example 148, N—[N-[(Phenylmethoxy)carbonyl]-L-leucyl]-L-valinal] (Cbz-Leu-Val-aldehyde)	74	58
CCCC[C@@H](C=O)NC(=O)[C@H](CC(C)C)NC(=O)OCc1ccccc1 [Reference Example 149, N—[N-[(Phenylmethoxy)carbonyl]-L-leucyl]-L-norleucinal]	15	11
CCCC[C@@H](C=O)NC(=O)[C@H](CC(C)C)NC(=O)N1CCOCC1 [Reference Example 150, N—[N-(4-Morpholinylcarbonyl)-L-leucyl]-L-norleucinal]	7.3	4.3
CC(C)C[C@H](NC(=O)c1ccco1)C(=O)N[C@H](C=O)C(C)C [Reference Example 151, N—[N-(2-Furanylcarbonyl)-L-leucyl]-L-valinal]	35	30
